From patent publication US8609836B2, “4-aryl-2-anilino-pyrimidines” (Janssen Pharmaceutica NV, priority 2008, dated 2013)

Experiments:
GSK3β (h) = GSK3β (h) (Homo sapiens, UniProt P49841); assay: GSK-3β human kinase inhibition, SPA; type: biochemical; settings: read-out: GSK3b pIC50 (converted)
In short: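 Radiometric: 33P-labelled peptide captured on streptavidin SPA beads after EDTA stop and imaged on Leadseeker. Reaction ran 1 h at RT, 1 μM cold ATP with 2 nM [γ-33P]ATP, 1 μM biotin-peptide substrate, human GSK3β 1 μg/ml, pH 7.4 Tris buffer.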

MDA-MB-231 = assay: Cellular proliferation assay (Alamar blue), MDA-MB-231; type: cell-based; settings: Homo sapiens, 10% FCS, 72 hours with compound, Alamar blue 24 h, read-out: MDA/MB231 (cellular proliferation assay, Table 4) (converted)
In short: (§1)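 Alamar blue fluorescence (544/590 nm) measured viable cells after 72 h compound exposure; dye incubation 4 h (HCT-116), 6 h (U87-MG) or 24 h (A2780, MDA-MB-231). Cells pre-seeded 24 h, grown in 10% FCS, 37° C, 5% CO2; effect expressed relative to control cells.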

PLK4 (h) = PLK4 (h) (Homo sapiens, UniProt O00444); assay: PLK-4 human kinase inhibition, scintillation proximity assay (SPA); type: biochemical; settings: read-out: PLK4 pIC50 (converted)
A2780 = assay: Cellular proliferation assay (Alamar blue), A2780; type: cell-based; settings: Homo sapiens, 10% FCS, 72 hours with compound, Alamar blue 24 h, read-out: A2780 (cellular proliferation assay, Table 4) (converted)
In short: as §1

PLK2 (h) = PLK2 (h) (Homo sapiens, UniProt Q9NYY3); assay: PLK2 human kinase inhibition, SPA; type: biochemical; settings: read-out: PLK2 pIC50 (converted)
In short: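 33P incorporation into a biotinylated peptide (2 μM) was captured on streptavidin PVT beads and imaged on Leadseeker. Enzyme at 30 μg/ml, ATP 0.1 μM with 2 nM [γ-33P]ATP, Hepes pH 8.0 with MnCl2 and DTT. Incubation was 20 min at room temperature.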

PLK3 (h) = PLK3 (h) (Homo sapiens, UniProt Q9H4B4); assay: PLK3 human kinase inhibition, SPA; type: biochemical; settings: read-out: PLK3 pIC50 (converted)
In short: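 Radiometric scintillation proximity format at pH 8.0 (Hepes, MnCl2, DTT). The 2 μM biotin-peptide substrate is phosphorylated by PLK3 (h) (30 μg/ml) using 0.1 μM ATP traced with 33P, for 20 min at room temperature. EDTA stop; phosphopeptide captured on streptavidin beads and imaged.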

CDK4/CyclinD1 (h) = CDK4/CyclinD1 (h) (Homo sapiens, UniProt P11802); assay: CDK4/CyclinD1 human kinase inhibition, SPA with GST-pRb substrate; type: biochemical; settings: read-out: CDK4 pIC50 (converted)
In short: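 Scintillation proximity format: after EDTA/Triton stop containing glutathione SPA beads, 33P incorporation was counted. The reaction ran 60 min at room temperature in Hepes pH 7.5 with NaF, MgCl2, DTT, using 2.5 μg/ml human CDK4/CyclinD1, 40 μg/ml GST-pRb substrate and 2 nM [γ-33P]ATP.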

HCT-116 = assay: Cellular proliferation assay (Alamar blue), HCT-116; type: cell-based; settings: Homo sapiens, 10% FCS, 72 hours with compound, Alamar blue 4 h
In short: as §1

AuroraB (h) = AuroraB (h) (Homo sapiens, UniProt Q96GD4); assay: Aurora-B human kinase inhibition, SPA; type: biochemical; settings: read-out: AuroraB pIC50 (converted)
In short: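 AuroraB (0.5 μg/ml) phosphorylates 3 μM biotin-peptide using 0.5 μM ATP spiked with 33P-ATP in Hepes pH 7.5 with 3 mM MgCl2 and MnCl2, for 60 min at room temperature. EDTA stop solution carries streptavidin scintillant beads, and the captured radiolabel is imaged.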

Chain of PLK3 (h) (Q9H4B4 whole entry): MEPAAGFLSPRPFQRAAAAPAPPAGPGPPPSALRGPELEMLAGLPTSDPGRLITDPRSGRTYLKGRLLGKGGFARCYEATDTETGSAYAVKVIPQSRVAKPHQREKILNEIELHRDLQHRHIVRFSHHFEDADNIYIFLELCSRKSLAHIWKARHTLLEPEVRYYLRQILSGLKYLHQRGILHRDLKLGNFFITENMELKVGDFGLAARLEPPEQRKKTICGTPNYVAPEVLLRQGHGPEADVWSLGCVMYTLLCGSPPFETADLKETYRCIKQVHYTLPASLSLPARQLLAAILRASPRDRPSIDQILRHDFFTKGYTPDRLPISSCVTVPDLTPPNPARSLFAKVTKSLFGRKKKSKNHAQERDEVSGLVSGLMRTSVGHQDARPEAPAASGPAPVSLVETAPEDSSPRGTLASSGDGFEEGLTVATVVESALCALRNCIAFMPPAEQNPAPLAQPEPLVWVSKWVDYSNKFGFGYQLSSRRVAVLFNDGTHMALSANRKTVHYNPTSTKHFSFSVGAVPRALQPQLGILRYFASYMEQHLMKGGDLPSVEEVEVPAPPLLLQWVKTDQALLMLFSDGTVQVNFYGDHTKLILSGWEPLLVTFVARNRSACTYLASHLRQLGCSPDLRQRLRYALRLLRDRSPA
Chain of PLK2 (h) (Q9NYY3 whole entry): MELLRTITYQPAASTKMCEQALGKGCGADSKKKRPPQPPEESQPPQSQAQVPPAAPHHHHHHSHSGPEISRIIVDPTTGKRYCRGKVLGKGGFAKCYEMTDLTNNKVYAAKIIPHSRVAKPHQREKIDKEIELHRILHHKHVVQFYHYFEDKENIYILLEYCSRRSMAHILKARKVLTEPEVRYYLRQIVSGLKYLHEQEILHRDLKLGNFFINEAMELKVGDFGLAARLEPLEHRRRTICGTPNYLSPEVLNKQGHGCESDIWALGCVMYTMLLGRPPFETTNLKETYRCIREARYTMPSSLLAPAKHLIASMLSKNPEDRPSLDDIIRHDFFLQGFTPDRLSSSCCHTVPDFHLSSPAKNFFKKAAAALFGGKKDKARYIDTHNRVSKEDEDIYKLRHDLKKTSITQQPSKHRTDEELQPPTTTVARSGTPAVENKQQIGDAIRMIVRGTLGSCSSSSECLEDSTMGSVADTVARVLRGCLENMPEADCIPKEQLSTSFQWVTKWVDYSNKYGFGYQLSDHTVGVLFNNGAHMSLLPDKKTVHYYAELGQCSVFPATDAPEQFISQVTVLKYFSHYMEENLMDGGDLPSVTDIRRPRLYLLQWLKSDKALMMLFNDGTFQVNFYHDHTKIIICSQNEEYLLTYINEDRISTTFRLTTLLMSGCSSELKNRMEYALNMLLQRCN
Chain of AuroraB (h) (Q96GD4 whole entry): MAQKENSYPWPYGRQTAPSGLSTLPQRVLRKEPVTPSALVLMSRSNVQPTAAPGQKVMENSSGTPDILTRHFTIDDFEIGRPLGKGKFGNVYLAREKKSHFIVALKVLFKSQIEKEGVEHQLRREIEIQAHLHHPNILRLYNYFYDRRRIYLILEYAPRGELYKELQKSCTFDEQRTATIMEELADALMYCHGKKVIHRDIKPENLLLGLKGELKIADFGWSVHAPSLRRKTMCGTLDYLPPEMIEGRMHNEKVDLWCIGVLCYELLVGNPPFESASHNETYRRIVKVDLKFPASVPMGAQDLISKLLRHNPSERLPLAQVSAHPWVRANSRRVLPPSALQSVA
Chain of PLK4 (h) (O00444 whole entry): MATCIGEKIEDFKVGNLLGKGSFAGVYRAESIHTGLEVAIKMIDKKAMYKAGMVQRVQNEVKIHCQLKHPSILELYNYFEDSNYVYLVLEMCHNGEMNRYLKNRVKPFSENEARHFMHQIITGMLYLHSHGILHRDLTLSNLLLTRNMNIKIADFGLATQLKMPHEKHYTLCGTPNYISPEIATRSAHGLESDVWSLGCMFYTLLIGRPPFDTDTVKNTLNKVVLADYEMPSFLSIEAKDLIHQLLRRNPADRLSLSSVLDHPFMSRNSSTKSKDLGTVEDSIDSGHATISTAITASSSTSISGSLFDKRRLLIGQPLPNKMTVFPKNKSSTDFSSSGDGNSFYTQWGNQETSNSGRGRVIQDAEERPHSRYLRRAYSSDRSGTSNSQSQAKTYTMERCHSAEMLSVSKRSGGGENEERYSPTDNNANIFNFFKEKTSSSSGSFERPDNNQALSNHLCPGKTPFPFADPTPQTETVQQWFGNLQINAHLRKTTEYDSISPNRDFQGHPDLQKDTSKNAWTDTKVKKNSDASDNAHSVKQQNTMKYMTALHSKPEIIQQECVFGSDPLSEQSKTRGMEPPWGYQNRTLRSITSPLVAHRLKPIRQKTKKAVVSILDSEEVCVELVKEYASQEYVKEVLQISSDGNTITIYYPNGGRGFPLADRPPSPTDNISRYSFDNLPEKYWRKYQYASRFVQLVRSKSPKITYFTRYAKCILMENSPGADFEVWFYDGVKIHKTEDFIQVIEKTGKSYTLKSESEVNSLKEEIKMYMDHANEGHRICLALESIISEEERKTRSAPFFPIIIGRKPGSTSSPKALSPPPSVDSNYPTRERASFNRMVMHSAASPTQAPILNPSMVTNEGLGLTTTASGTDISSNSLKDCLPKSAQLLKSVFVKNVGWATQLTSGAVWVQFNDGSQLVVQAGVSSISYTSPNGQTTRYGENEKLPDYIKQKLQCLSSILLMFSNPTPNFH
Chain of GSK3β (h) (P49841 whole entry): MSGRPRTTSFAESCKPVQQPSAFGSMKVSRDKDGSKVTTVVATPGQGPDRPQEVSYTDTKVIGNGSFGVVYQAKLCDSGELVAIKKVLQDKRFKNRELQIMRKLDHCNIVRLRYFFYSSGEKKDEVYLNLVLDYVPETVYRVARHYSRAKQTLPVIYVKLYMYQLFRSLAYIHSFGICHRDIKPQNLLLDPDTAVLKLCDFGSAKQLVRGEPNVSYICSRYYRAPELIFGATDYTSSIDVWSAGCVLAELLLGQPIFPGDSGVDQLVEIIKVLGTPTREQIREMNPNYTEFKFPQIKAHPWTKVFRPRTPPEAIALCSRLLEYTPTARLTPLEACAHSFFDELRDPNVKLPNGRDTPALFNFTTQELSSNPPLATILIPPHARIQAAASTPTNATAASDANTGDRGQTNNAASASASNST
Chain of CDK4/CyclinD1 (h) (P11802 whole entry): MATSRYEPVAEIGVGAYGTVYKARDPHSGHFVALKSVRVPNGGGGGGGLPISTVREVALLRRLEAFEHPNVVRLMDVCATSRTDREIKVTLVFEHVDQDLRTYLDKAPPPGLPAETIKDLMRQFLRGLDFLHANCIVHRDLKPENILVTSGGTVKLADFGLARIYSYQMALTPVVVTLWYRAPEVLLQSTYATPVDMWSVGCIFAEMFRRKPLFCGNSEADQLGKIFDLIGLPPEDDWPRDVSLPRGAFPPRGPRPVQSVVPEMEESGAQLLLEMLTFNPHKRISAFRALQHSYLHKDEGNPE
Chain of CDK4/CyclinD1 (h) (P24385 whole entry partner): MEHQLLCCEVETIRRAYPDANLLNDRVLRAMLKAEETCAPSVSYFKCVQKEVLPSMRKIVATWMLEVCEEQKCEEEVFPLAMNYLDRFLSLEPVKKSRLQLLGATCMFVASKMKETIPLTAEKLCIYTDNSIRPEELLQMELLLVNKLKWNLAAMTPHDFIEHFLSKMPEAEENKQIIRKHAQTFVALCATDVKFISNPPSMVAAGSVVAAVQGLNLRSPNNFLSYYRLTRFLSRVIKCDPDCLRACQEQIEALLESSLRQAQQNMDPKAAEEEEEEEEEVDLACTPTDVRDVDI

| SMILES | IC50 (GSK3β (h)) [µM] | IC50 (MDA-MB-231) [µM] | IC50 (PLK4 (h)) [µM] | IC50 (A2780) [µM] | IC50 (PLK2 (h)) [µM] | IC50 (PLK3 (h)) [µM] | IC50 (CDK4/CyclinD1 (h)) [µM] | IC50 (HCT-116) [µM] | IC50 (AuroraB (h)) [µM] |
| --- | --- | --- | --- | --- | --- | --- | --- | --- | --- |
| O=C1NCCNCc2ccc(cc2)-c2ccnc(n2)Nc2ccc(N3CCOCC3)c(c2)CN[C@H]1CO [Compound 115] | > 10 | > 10 | 1.35 | > 10 | > 10 | > 10 | > 10 | > 10 | > 10 |
| CN(C)Cc1cc2cc(c1)Nc1nccc(n1)-c1cccc(c1)CNC(=O)[C@@H]1CCCN1C2 [Compound 30] | 0.024 | 0.257 | 0.162 | 0.174 | > 10 | > 10 | 0.891 | 0.107 | > 10 |
| COc1ccc2cc1CN(C)CCCNC(=O)[C@@H]1CCCN1Cc1cc(cc(NC(C)C)c1)Nc1nccc-2n1 [Compound 164] | > 10 | > 10 | 2.63 | > 10 | > 10 | > 10 | > 10 | > 10 | > 10 |
| O=C1NCCOc2ccc(cc2)-c2ccnc(n2)Nc2ccc(N3CCOCC3)c(c2)CN2CCC1CC2 [Compound 6] | 0.741 | 0.363 | 0.316 | 0.195 | > 10 | > 10 | 0.562 | 0.105 | 1.66 |
| CN1CCCNC(=O)C2CCN(CC2)Cc2cc(cc(N3CCOCC3)c2)Nc2nccc(n2)-c2ccc(cc2)C1 [Compound 72] | > 10 | > 10 | 2.34 | > 10 | > 10 | > 10 | > 10 | 3.39 | > 10 |
| C[C@@H]1NCc2cc(ccc2N2CCOCC2)Nc2nccc(n2)-c2ccc(cc2)OCCCNC1=O [Compound 5] | 0.135 | > 10 | 0.162 | > 10 | > 10 | > 10 | 1.29 | 1.74 | > 10 |
| O=C1NCCNc2cc(ccn2)-c2ccnc(n2)Nc2ccc(N3CCOCC3)c(c2)CN2CCCC12 (stereo not drawn) [Compound 161] | 0.182 | > 10 | 1.58 | 9.77 | > 10 | > 10 | > 10 | 4.68 | 6.17 |
| O=C1NCCNc2cc(ccn2)-c2ccnc(n2)Nc2ccc(N3CCOCC3)c(c2)CN2CCC1CC2 [Compound 84] | 1.55 | > 10 | 5.37 | > 10 | > 10 | > 10 | 7.24 | > 10 | 7.08 |
| COc1ccc2cc1CN(C)CCCNC(=O)C1CCN(CC1)Cc1cc(Br)cc(c1)Nc1nccc-2n1 [Compound 76] | > 10 | 6.76 | 3.24 | > 10 | > 10 | > 10 | > 10 | > 10 | 5.5 |
| COc1ccc2cc1CN(C)CCCNC(=O)C1CCN(CC1)Cc1cc(cc(N3CCOCC3)c1)Nc1nccc-2n1 [Compound 80] | > 10 | > 10 | 5.37 | > 10 | > 10 | > 10 | > 10 | > 10 | > 10 |
| O=C1CN2CCN(CC2)Cc2cccc(c2)Nc2nccc(n2)-c2ccnc(c2)CCCN1 [Compound 21] | 0.0166 | > 10 | 4.27 | 7.59 | > 10 | > 10 | 1.29 | 2.29 | > 10 |
| COc1ccc2cc1CN(C)CCCNC(=O)CN1CCN(CC1)Cc1cccc(c1)Nc1nccc-2n1 [Compound 146] | > 10 | > 10 | 6.76 | > 10 | > 10 | > 10 | > 10 | > 10 | > 10 |
| COc1ccc2cc1CNCCNC(=O)[C@@H]1CCCN1Cc1cc(ccc1N1CCOCC1)Nc1nccc-2n1 [Compound 178] | > 10 | > 10 | > 10 | > 10 | > 10 | > 10 | > 10 | > 10 | > 10 |
| COc1ccc2cc1CN(C)CCNC(=O)CN1CCN(CC1)Cc1cc(cc(NC(C)C)c1)Nc1nccc-2n1 [Compound 142] | > 10 | > 10 | 3.31 | > 10 | > 10 | > 10 | > 10 | > 10 | > 10 |
| COc1ccc2cc1CN(C)CCNC(=O)[C@@H]1CCCN1Cc1cccc(c1)Nc1nccc-2n1 [Compound 175] | > 10 | > 10 | 8.51 | > 10 | > 10 | > 10 | > 10 | > 10 | > 10 |
| CN1CCCNC(=O)[C@@H]2CCCN2Cc2cc(cc(N3CCOCC3)c2)Nc2nccc(n2)-c2ccc(cc2)C1 [Compound 16] | > 10 | > 10 | 0.617 | 9.55 | > 10 | > 10 | > 10 | > 10 | > 10 |
| COCCNCc1cc2cc(c1)Nc1nccc(n1)-c1cccc(c1)CNC(=O)[C@@H]1CCCN1C2 [Compound 33] | 0.145 | 0.832 | 0.178 | 0.224 | > 10 | > 10 | 1.26 | 0.126 | 8.32 |
